Source: patent publication US20240124410A1, “SMALL MOLECULES AND THEIR USE AS MALT1 INHIBITORS” (University of Pittsburgh - Of the Commonwealth System of …, priority 2021, published 2024)

Biological target: T1, BCL10-MALT1 interaction (Homo sapiens, UniProt Q9UDY8)
T1 construct: analyte a purified recombinant MALT1 fragment (DD+Ig1-2, Sumo-tagged Ig1-2 or GB-tagged DD)
T1 sequence (Q9UDY8 1-824): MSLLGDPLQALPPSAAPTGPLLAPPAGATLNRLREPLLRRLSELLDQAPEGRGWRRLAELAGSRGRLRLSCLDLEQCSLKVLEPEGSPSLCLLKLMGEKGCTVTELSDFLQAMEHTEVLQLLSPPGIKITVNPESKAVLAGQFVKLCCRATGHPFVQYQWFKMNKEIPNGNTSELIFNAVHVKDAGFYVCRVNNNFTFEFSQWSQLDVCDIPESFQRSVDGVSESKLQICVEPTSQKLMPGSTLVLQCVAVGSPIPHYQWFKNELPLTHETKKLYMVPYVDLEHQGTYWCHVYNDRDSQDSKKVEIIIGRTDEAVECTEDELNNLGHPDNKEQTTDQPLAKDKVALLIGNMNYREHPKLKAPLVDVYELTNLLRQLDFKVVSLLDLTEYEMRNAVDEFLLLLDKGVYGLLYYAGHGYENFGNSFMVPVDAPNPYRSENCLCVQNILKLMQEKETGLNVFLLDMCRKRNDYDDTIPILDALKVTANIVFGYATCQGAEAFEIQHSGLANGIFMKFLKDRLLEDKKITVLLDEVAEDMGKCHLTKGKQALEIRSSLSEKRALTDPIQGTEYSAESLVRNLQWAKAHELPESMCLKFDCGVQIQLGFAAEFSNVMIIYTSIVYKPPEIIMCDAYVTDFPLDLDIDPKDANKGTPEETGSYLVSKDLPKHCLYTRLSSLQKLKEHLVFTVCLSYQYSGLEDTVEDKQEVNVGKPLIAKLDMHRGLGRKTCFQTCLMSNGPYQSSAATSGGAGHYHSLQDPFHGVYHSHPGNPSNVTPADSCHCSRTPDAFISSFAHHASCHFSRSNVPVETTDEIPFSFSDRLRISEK
T1 sequence (O95999 1-233 partner): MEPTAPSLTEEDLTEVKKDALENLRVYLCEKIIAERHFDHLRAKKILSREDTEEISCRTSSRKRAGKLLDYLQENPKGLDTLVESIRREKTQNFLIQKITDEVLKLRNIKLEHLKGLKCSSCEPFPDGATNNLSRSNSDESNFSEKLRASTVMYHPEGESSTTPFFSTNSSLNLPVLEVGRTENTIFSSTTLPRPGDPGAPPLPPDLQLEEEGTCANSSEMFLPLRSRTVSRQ
Test: SPR analysis of disruption of the BCL10-MALT1 interaction, dose-response (FIG. 2E); Biacore 2000, full-length Bcl10 (GST-tagged recombinant human, Abnova H00008915-P01) immobilized on sensor chip, MALT1 protein passed over
Format: binding
Source text: FIG. 2. In silico screening identifies small molecules targeting the predicted BCL10-binding groove within MALT1 (Ig1-2). (A) We performed a structure-guided in silico screen of 3 million compounds, using the LibDock program from Discovery Studio 3.5, in order to identify candidate molecules that could potentially fit within the identified groove in the MALT1 Ig1-2 domain. Lipinski's rule of five filters (LipinskiRo5) were applied to enrich for compounds with drug-like properties. Potential compound hits were then screened for their ability to disrupt the MALT1-BCL10 interaction using SPR analysis. 9 candidate compounds were then subjected to a second, ELISA-based MALT1-BCL10 interaction assay, identifying 2 compounds that could disrupt the interaction in both SPR and ELISA assays. M1i-124 and M1i-1255 are the two compounds identified to disrupt the BCL10-MALT1 interaction. […]
The LibDock program from Discovery Studio 3.5 was used to perform a structure-guided in silico screen of 3 million compounds to identify candidate molecules that could potentially fit within the identified groove of MALT1 Igl-Ig2 domain, found to be critical for BCL10-MALT1 interaction. […] Top hits were further evaluated for their potential to disrupt the BCL10-MALT1 interaction through secondary SPR and ELISA-based assays as described below. […]

- IC50: 22 µM
Compound: O=S(=O)(NCc1ccc2c(c1)OCO2)c1ccc(Cc2ccc(S(=O)(=O)NCc3ccc4c(c3)OCO4)cc2)cc1 [M1i-124]
